Experimental data: US6831101B2, “Tricyclic rantes receptor ligands” (Chemokine Therapeutics Corporation, priority 2001, dated 2004)

How the values were obtained:
[1] = tested on: CCR-1, -3, -4, and -5 receptors on THP-1 cells; test: Competitive inhibition of 125I-RANTES binding to THP-1 cells; details: for % Inhibition (4 ug/ml) of 125I-RANTES binding: 4 ug/ml compound
Experimental: The binding studies were conducted using I^125 labeled RANTES as competitor and THP-1 cell lines.

[2] = tested on: RANTES-induced [Ca2+]i mobilization in THP-1 cells; test: Inhibition of RANTES-induced [Ca2+]i mobilization in THP-1 cells; format: cell-based
Experimental: A rapid, transient rise in the free cytosolic Ca^2+ concentration ([Ca^2+]i) is one of the events in neutrophil activation and is assumed to be involved in many of the subsequent cellular reactions. Both Ca^2+ release from intracellular stores and Ca^2+ influx from the extracellular space contribute to the rise in [Ca^2+]i. […] Fura-2,AM loaded THP-1 cells were incubated with CTCM189 for 60 min prior to induction of [Ca^2+]i mobilization by 10 nM RANTES.

[3] = tested on: murine Experimental Allergic Encephalomyelitis (EAE); test: EAE mouse model of multiple sclerosis, clinical severity grading; format: in vivo; details: 5, 20 and 40 mg/kg/day for 19 days, SJL/J mice, compared to control, FIG. 3
Source text: Experimental autoimmune encephalomyelitis (EAE) is a CD4^+ Th1-mediated inflammatory demyelinating disease of the central nervous system (CNS) that serves as a model for multiple sclerosis and other autoimmune diseases. It has previously been disclosed that RANTES regulates acute and relapsing autoimmune encephalomyelitis, and that RANTES production in the central nervous system is correlated with relapsing EAE development. In this example, the EAE mouse model (SJL/J mice) for MS is used, in which the disease is induced with Bordetella pertussis toxin (Claude C. A. et. al., (1975) Journal of Immunology 114(5): 1537-1540 and Hosseimi, H. et. al., (2000) Neurology 54 (7): A 166, An abstract presented in April 2000 on “Inhibition of proteosome prevents clinical signs in an experimental model of Multiple Sclerosis”).
Data for FIG. 3 was collected in an experiment involving five groups of 10 mice each, as follows: group I, normal control (no drug, no disease); group II, EAE control (MBP but no drug); group III, drug at 5 mg/kg body weight; group IV, drug at 20 mg/kg body weight; group V, drug at 40 mg/kg body weight. Three different concentrations of neoabietic acid were given to animals for 19 days: 5, 20, and 40 mg/kg/day in a volume of 100 ul Cremophore EL (Sigma). […]

C=C[C@]1(C)C=C2CC[C@@H]3[C@](C)(CCC[C@@]3(C)C(=O)O)[C@H]2CC1 [B, Sandaraco-pimaric acid]
% Inhibition (4 ug/ml) of 125I-RANTES binding [1]: 36%

C=C[C@@]1(C)C=C2CC[C@@H]3[C@](C)(CCC[C@@]3(C)C(=O)O)[C@H]2CC1.N [C, Ammonium Pimarate]
% Inhibition (4 ug/ml) of 125I-RANTES binding [1]: 48%

CC(C)=C1C=C2CC[C@@H]3[C@](C)(CCC[C@@]3(C)C(=O)O)[C@H]2CC1 [Compound 1, 8(14), 13(15)-abietadien-18-oic-acid]
% Inhibition (4 ug/ml) of 125I-RANTES binding [1]: 68% | IC50 ([1]; I125 labeled RANTES, THP-1 cells, data of FIG. 1, read-out: IC50, inhibition of binding of RANTES to THP-1 cells expressing CCR-1, -3, -4, and -5): 253 nM | IC50 ([2]; Homo sapiens, Fura-2,AM loaded THP-1 cells, 60 min preincubation, 10 nM RANTES): 27.2 nM | Inhibition of RANTES-induced [Ca2+]i mobilization at 5 uM ([2]; THP-1 cells, 5 uM compound): almost complete inhibition | Effect on clinical scores in EAE [3]: beneficial effect on the clinical scores
